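1) Cells in 96-well plates. 2) Compound, 48 h, 5 concentrations. 3) Linear interpolation between surrounding doses. 4) Unreached endpoint = highest concentration. Abbreviation: GI50, concentration required for 50% inhibition of growth.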 The source made the active and inactive calls. No stated cut-off is given here; in the data, active = GI50 up to about 1.1 µM and inactive = higher.
Tests used:
Assay in all cases: NCI tumour cell line growth inhibition, 48 h
NCI-H522 = tested on: NCI-H522
NCI/ADR-RES = tested on: NCI/ADR-RES
HT-29 = tested on: HT-29
HOP-62 = tested on: HOP-62
SF-268 = tested on: SF-268
SK-OV-3 = tested on: SK-OV-3
K562 = tested on: K562
SW-620 = tested on: SW-620
SK-MEL-5 = tested on: SK-MEL-5
RXF 393 = tested on: RXF 393
NCI-H23 = tested on: NCI-H23
COLO 205 = tested on: COLO 205
OVCAR-5 = tested on: OVCAR-5
UACC-257 = tested on: UACC-257
SF-539 = tested on: SF-539
T47D = tested on: T47D
MOLT-4 = tested on: MOLT-4
BT-549 = tested on: BT-549
UACC-62 = tested on: UACC-62
PC-3 = tested on: PC-3
SK-MEL-2 = tested on: SK-MEL-2
MDA-MB-231 = tested on: MDA-MB-231
Hs-578T = tested on: Hs-578T
ACHN = tested on: ACHN
HCT-116 = tested on: HCT-116
HCC 2998 = tested on: HCC 2998
A498 = tested on: A498
786-0 = tested on: 786-0
TK-10 = tested on: TK-10
NCI-H226 = tested on: NCI-H226
MCF7 = tested on: MCF7
KM12 = tested on: KM12
OVCAR-3 = tested on: OVCAR-3
CAKI-1 = tested on: CAKI-1
IGROV-1 = tested on: IGROV-1
SN12C = tested on: SN12C
Malme-3M = tested on: Malme-3M
DU-145 = tested on: DU-145
HCT-15 = tested on: HCT-15
U-251 = tested on: U-251
HL-60 = tested on: HL-60
UO-31 = tested on: UO-31
MDA-N = tested on: MDA-N
SF-295 = tested on: SF-295
SR = tested on: SR
M14 = tested on: M14
NCI-H460 = tested on: NCI-H460
A549 = tested on: A549
MDA-MB-435 = tested on: MDA-MB-435
SNB-75 = tested on: SNB-75
CCRF-CEM = tested on: CCRF-CEM
EKVX = tested on: EKVX
SNB-19 = tested on: SNB-19
LOX IMVI = tested on: LOX IMVI
RPMI-8226 = tested on: RPMI-8226
OVCAR-4 = tested on: OVCAR-4
HOP-92 = tested on: HOP-92
SK-MEL-28 = tested on: SK-MEL-28
OVCAR-8 = tested on: OVCAR-8

With `COc1cccc(C2c3cc4c(cc3OC(NNC(N)=O)C2C)OCO4)c1O` (stereo not drawn) the GI50 (NCI-H522) was 0.871 µM (active), the GI50 (NCI/ADR-RES) was 3.36 µM (inactive) and the GI50 (HT-29) was 1.7 µM (inactive). The GI50 (HOP-62) was 1.35 µM (inactive), the GI50 (SF-268) was 3.37 µM (inactive) and the GI50 (SK-OV-3) was 5.94 µM (inactive). The GI50 (K562) was 0.516 µM (active), the GI50 (SW-620) was 0.569 µM (active) and the GI50 (SK-MEL-5) was 0.345 µM (active). For the same molecule, the GI50 (RXF 393) was 0.766 µM (active), the GI50 (NCI-H23) was 3.17 µM (inactive) and the GI50 (COLO 205) was 1.78 µM (inactive). The GI50 (OVCAR-5) was 6.12 µM (inactive), the GI50 (UACC-257) was 3.42 µM (inactive) and the GI50 (SF-539) was 0.766 µM (active). The GI50 (T47D) was 61 µM (inactive), the GI50 (MOLT-4) was 1.42 µM (inactive) and the GI50 (BT-549) was 33 µM (inactive). For the same molecule, the GI50 (UACC-62) was 2.54 µM (inactive), the GI50 (PC-3) was 1.15 µM (inactive) and the GI50 (SK-MEL-2) was 0.703 µM (active). For the same molecule, the GI50 (MDA-MB-231) was 3.94 µM (inactive), the GI50 (Hs-578T) was 0.741 µM (active) and the GI50 (ACHN) was 3.47 µM (inactive). The GI50 (HCT-116) was 0.834 µM (active), the GI50 (HCC 2998) was 1.8 µM (inactive) and the GI50 (A498) was 0.83 µM (active). The GI50 (786-0) was 1.52 µM (inactive), the GI50 (TK-10) was 9.18 µM (inactive) and the GI50 (NCI-H226) was 2 µM (inactive). For the same molecule, the GI50 (MCF7) was 0.491 µM (active), the GI50 (KM12) was 0.731 µM (active) and the GI50 (OVCAR-3) was 0.783 µM (active). For the same molecule, the GI50 (CAKI-1) was 3.11 µM (inactive), the GI50 (IGROV-1) was 2.58 µM (inactive) and the GI50 (SN12C) was 2.65 µM (inactive). The GI50 (Malme-3M) was 0.745 µM (active), the GI50 (DU-145) was 4.25 µM (inactive) and the GI50 (HCT-15) was 1.08 µM. The GI50 (U-251) was 1.07 µM (active), the GI50 (HL-60) was 1.05 µM (active) and the GI50 (UO-31) was 8.39 µM (inactive). For the same molecule, the GI50 (MDA-N) was 0.213 µM (active), the GI50 (SF-295) was 0.593 µM (active) and the GI50 (SR) was 1.64 µM (inactive). The GI50 (M14) was 0.513 µM (active), the GI50 (NCI-H460) was 0.951 µM (active) and the GI50 (A549) was 1.92 µM (inactive). For the same molecule, the GI50 (MDA-MB-435) was 0.216 µM (active), the GI50 (SNB-75) was 4.33 µM (inactive) and the GI50 (CCRF-CEM) was 0.929 µM (active). The GI50 (EKVX) was 8.26 µM (inactive), the GI50 (SNB-19) was 9.14 µM (inactive) and the GI50 (LOX IMVI) was 0.933 µM (active). The GI50 (RPMI-8226) was 2.32 µM (inactive), the GI50 (OVCAR-4) was 38.8 µM (inactive) and the GI50 (HOP-92) was 0.269 µM (active). For the same molecule, the GI50 (SK-MEL-28) was 1.99 µM (inactive) and the GI50 (OVCAR-8) was 2.46 µM (inactive).

With `C=C1C(=O)OC2C1C(OC(=O)/C(C)=C/C)CC(O)(CCl)C1C(OC(C)=O)C=C(C)C21O` (stereo not drawn) the GI50 (NCI-H522) was 1.99 µM (inactive), the GI50 (NCI/ADR-RES) was 16.3 µM (inactive) and the GI50 (HT-29) was 16.3 µM (inactive). The GI50 (HOP-62) was 34.8 µM (inactive), the GI50 (SF-268) was 16 µM (inactive) and the GI50 (SK-OV-3) was 37 µM (inactive). The GI50 (K562) was 7.8 µM (inactive), the GI50 (SW-620) was 3.98 µM (inactive) and the GI50 (SK-MEL-5) was 14.1 µM (inactive). For the same molecule, the GI50 (RXF 393) was 11.2 µM (inactive), the GI50 (NCI-H23) was 16.6 µM (inactive) and the GI50 (COLO 205) was 8.3 µM (inactive). The GI50 (OVCAR-5) was 17.3 µM (inactive), the GI50 (UACC-257) was 16.5 µM (inactive) and the GI50 (SF-539) was 18.2 µM (inactive). The GI50 (T47D) was 18 µM (inactive), the GI50 (MOLT-4) was 3.69 µM (inactive) and the GI50 (BT-549) was 8.85 µM (inactive). For the same molecule, the GI50 (UACC-62) was 14.3 µM (inactive), the GI50 (PC-3) was 16.1 µM (inactive) and the GI50 (SK-MEL-2) was 15.9 µM (inactive). For the same molecule, the GI50 (MDA-MB-231) was 20.1 µM (inactive), the GI50 (Hs-578T) was 61.9 µM (inactive) and the GI50 (ACHN) was 8.97 µM (inactive). For the same molecule, the GI50 (HCT-116) was 7.5 µM (inactive), the GI50 (HCC 2998) was 16.3 µM (inactive) and the GI50 (A498) was 21.8 µM (inactive). For the same molecule, the GI50 (786-0) was 11.6 µM (inactive), the GI50 (TK-10) was 13.8 µM (inactive) and the GI50 (NCI-H226) was 30.3 µM (inactive). The GI50 (MCF7) was 6.56 µM (inactive), the GI50 (KM12) was 19.2 µM (inactive) and the GI50 (OVCAR-3) was 8.93 µM (inactive). For the same molecule, the GI50 (CAKI-1) was 7.11 µM (inactive), the GI50 (IGROV-1) was 14.4 µM (inactive) and the GI50 (SN12C) was 16.2 µM (inactive). For the same molecule, the GI50 (Malme-3M) was 3.34 µM (inactive), the GI50 (DU-145) was 15.2 µM (inactive) and the GI50 (HCT-15) was 6.46 µM. For the same molecule, the GI50 (U-251) was 20.2 µM (inactive), the GI50 (HL-60) was 1.89 µM (inactive) and the GI50 (UO-31) was 18.6 µM (inactive). For the same molecule, the GI50 (MDA-N) was 16.8 µM (inactive), the GI50 (SF-295) was 58.5 µM (inactive) and the GI50 (SR) was 3.8 µM (inactive). For the same molecule, the GI50 (M14) was 12.6 µM (inactive), the GI50 (NCI-H460) was 20.8 µM (inactive) and the GI50 (A549) was 28.2 µM (inactive). The GI50 (MDA-MB-435) was 20.3 µM (inactive), the GI50 (SNB-75) was 21.8 µM (inactive) and the GI50 (CCRF-CEM) was 2.79 µM (inactive). For the same molecule, the GI50 (EKVX) was 9.75 µM (inactive), the GI50 (SNB-19) was > 42.9 µM (inactive) and the GI50 (LOX IMVI) was 6.49 µM (inactive). The GI50 (RPMI-8226) was 7.01 µM (inactive), the GI50 (OVCAR-4) was 17.2 µM (inactive) and the GI50 (HOP-92) was 13.1 µM (inactive). For the same molecule, the GI50 (SK-MEL-28) was 10.5 µM (inactive) and the GI50 (OVCAR-8) was 8.45 µM (inactive).

Reference: ChEMBL document CHEMBL1201862, “PubChem BioAssay data set” (2004)
